Measurements: ChEMBL document CHEMBL1795228, “Air to lung partition coefficients for volatile organic compounds and blood to lung partition coefficients for volatile organic compounds and drugs” (Eur J Med Chem, 2008)

Key:
[1] = In-vivo serum to lung partition coefficients of the compound, logP(lung) in rat; type: ADME; details: octanol/water
[2] = In-vivo blood/plasma to lung partition coefficients of the compound, logP(lung) in rat; type: ADME, cell-free; details: octanol/water
[3] = In-vivo blood to lung partition coefficients of the compound, logP(lung) in rat; type: ADME

Row | SMILES | logP(lung) [3] | further results
1 | COC(=O)Nc1nc2cc(C(=O)N3CCN(c4ccccn4)CC3)ccc2[nH]1 | – | logP(lung) [1]: -0.29
2 | Cc1ncc2n1-c1ccc(Cl)cc1C(c1ccccc1F)=NC2 [MIDAZOLAM] | – | logP(lung) [2]: 0.6
3 | C=CCOc1ccccc1OCC(O)CNC(C)C (stereo not drawn) [OXPRENOLOL] | – | logP(lung) [2]: 1.27
4 | CN(C)CCCN1c2ccccc2CCc2ccc(Cl)cc21 [CLOMIPRAMINE] | 2.16 | –
5 | COc1ccc(CCCn2ncc3c2nc(N)n2nc(-c4ccco4)nc32)cc1 | 0.62 | –
6 | CC[C@H]1OC(=O)[C@H](C)[C@@H](O[C@H]2C[C@@](C)(OC)[C@@H](O)[C@H](C)O2)[C@H](C)[C@@H](O[C@@H]2O[C@H](C)C[C@H](N(C)C)[C@H]2O)[C@](C)(O)C[C@@H](C)CN(C)[C@H](C)[C@@H](O)[C@]1(C)O [AZITHROMYCIN] | – | logP(lung) [1]: 2.08
7 | COCCc1ccc(OCC(O)CNC(C)C)cc1 (stereo not drawn) [METOPROLOL] | 1.06 | –
8 | CN(C)CCCN1c2ccccc2Sc2ccc(Cl)cc21 [CHLORPROMAZINE] | 1.81 | –
9 | CCc1cc2c(s1)N(C)C(=O)CN=C2c1ccccc1Cl [CLOTIAZEPAM] | 1.04 | –
10 | CC[C@H]1OC(=O)[C@H](C)[C@@H](O[C@H]2C[C@@](C)(OC)[C@@H](O)[C@H](C)O2)[C@H](C)[C@@H](O[C@@H]2O[C@H](C)C[C@H](N(C)C)[C@H]2O)[C@](C)(O)C[C@@H](C)C(=O)[C@H](C)[C@@H](O)[C@]1(C)O [ERYTHROMYCIN] | – | logP(lung) [1]: 1.62
11 | CC(=O)Nc1ccc(OCC(O)CNC(C)C)cc1 (stereo not drawn) [PRACTOLOL] | 0.48 | –
12 | C=CC(=O)O [ACRYLIC ACID] | 0.14 | –
13 | Oc1ccc(O)cc1 [HYDROQUINONE] | -0.16 | –
